Measured values from the supplement of paper PMC11061612.

What was measured:
TGW (Neuroblastoma) = assay: combination Emax (second highest fraction inhibited in the dose matrix, 72 h); higher = more inhibition; extreme values may be limits of the assay
In short: (§1)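 After 24 hours at 37°C and 5% CO2 in 1536-well plates, cells in DMEM/F12 or RPMI plus 10% FBS received two-drug dose matrices for 72 hours. Viability came from CellTiter-Glo 2.0 luminescence and was scaled as inhibition, anchored at 0 by vehicle wells and at 1 by blank wells. Combination Emax is taken as the second-highest inhibition in the matrix, and Bliss excess as the observed combination effect less EA + EB − EA·EB, with EA and EB the single-agent effects.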

[1] = system: LU-65 (Non-Small Cell Lung Carcinoma); assay: as above
In short: as §1

[2] = system: KARPAS-299 (T-Cell Non-Hodgkin's Lymphoma); assay: as above
In short: as §1

[3] = system: NCI-H727 (Other Solid Carcinomas); assay: as above
In short: as §1

EW-24 (Ewing's Sarcoma) = assay: as above
In short: as §1

D-263MG (Glioblastoma) = assay: as above
In short: as §1

YH-13 (Glioblastoma) = assay: as above
In short: as §1

[4] = system: AMO-1 (Plasma Cell Myeloma); assay: as above
In short: as §1

ACHN (Kidney Carcinoma) = assay: as above
In short: as §1

[5] = system: Hs-766T (Pancreatic Carcinoma); assay: as above
In short: as §1

[6] = system: EFM-19 (Breast Carcinoma); assay: as above
In short: as §1

[7] = system: RF-48 (B-Cell Non-Hodgkin's Lymphoma); assay: as above
In short: as §1

UACC-62 (Melanoma) = assay: as above
In short: as §1

[8] = system: BT-549 (Breast Carcinoma); assay: as above
In short: as §1

[9] = system: SW13 (Other Solid Carcinomas); assay: as above
In short: as §1

[10] = system: Ca9-22 (Head and Neck Carcinoma); assay: Bliss excess, mean over the matrix (fraction); higher = more synergy
In short: as §1

[11] = system: Hs-766T (Pancreatic Carcinoma); assay: as above
In short: as §1

[12] = system: Caov-4 (Ovarian Carcinoma); assay: as above
In short: as §1

[13] = system: BT-549 (Breast Carcinoma); assay: as above
In short: as §1

[14] = system: SW13 (Other Solid Carcinomas); assay: as above
In short: as §1
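Wherever Bliss excess, mean over the matrix is given: after 72 h of two-drug dosing.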

Row | SMILES | combination Emax (TGW (Neuroblastoma)) | combination Emax [1] | combination Emax [2] | combination Emax [3] | combination Emax (EW-24 (Ewing's Sarcoma)) | combination Emax (D-263MG (Glioblastoma)) | combination Emax (YH-13 (Glioblastoma)) | combination Emax [4] | combination Emax (ACHN (Kidney Carcinoma)) | combination Emax [5] | combination Emax [6] | combination Emax [7] | combination Emax (UACC-62 (Melanoma)) | combination Emax [8] | combination Emax [9] | Bliss excess [10] | Bliss excess [11] | Bliss excess [12] | Bliss excess [13] | Bliss excess [14]
1 | CN(CCO)CC[C@H](CSc1ccccc1)Nc1ccc(S(=O)(=O)NC(=O)c2ccc(N3CCC([C@@H](O)c4ccccc4-c4ccc(Cl)cc4)CC3)cc2)cc1S(=O)(=O)C(F)(F)F [AZD4320] + CCN(CCO)CCCOc1ccc2c(Nc3cc(CC(=O)Nc4cccc(F)c4)[nH]n3)ncnc2c1 [AZD2811] (first compound max 1 µM, 7x7, partner max 1 µM) | 0.928 | 0.432 | 0.191 | 0.512 | 0.865 | 0.653 | 0.704 | 0.291 | 0.207 | 0.171 | 0.932 | 0.881 | 0.201 | 0.432 | 0.378 | 0.0591 | -0.0485 | -0.0141 | 0.0218 | -0.0152
2 | Cc1cc2ncnn2cc1Nc1ncc2c(n1)n(C1CCOCC1)c(=O)n2C [AZD7648] + O=C(c1cc(Cc2n[nH]c(=O)c3ccccc23)ccc1F)N1CCN(C(=O)C2CC2)CC1 [Olaparib] (first compound max 10 µM, 7x7, partner max 10 µM) | 0.344 | 0.312 | 0.151 | 0.218 | 0.214 | 0.094 | 0.16 | 0.196 | 0.211 | 0.353 | 0.401 | 0.322 | 0.253 | 0.18 | 0.203 | -0.0072 | -0.0491 | -0.015 | -0.0487 | -0.0454
3 | CN(CCO)CC[C@H](CSc1ccccc1)Nc1ccc(S(=O)(=O)NC(=O)c2ccc(N3CCC([C@@H](O)c4ccccc4-c4ccc(Cl)cc4)CC3)cc2)cc1S(=O)(=O)C(F)(F)F [AZD4320] + Cn1cnc2c(F)c(Nc3ccc(Br)cc3Cl)c(C(=O)NOCCO)cc21 [Selumetinib] (first compound max 1 µM, 7x7, partner max 3 µM) | 0.97 | 0.753 | 0.307 | 0.973 | 0.892 | 0.237 | 0.511 | 0.418 | 0.346 | 0.57 | 0.753 | 0.951 | 0.868 | 0.327 | 0.544 | 0.0415 | -0.013 | 0.0418 | -0.0231 | 0.0166
4 | CN(CCO)CC[C@H](CSc1ccccc1)Nc1ccc(S(=O)(=O)NC(=O)c2ccc(N3CCC([C@@H](O)c4ccccc4-c4ccc(Cl)cc4)CC3)cc2)cc1S(=O)(=O)C(F)(F)F [AZD4320] + Cc1cc2ncnn2cc1Nc1ncc2c(n1)n(C1CCOCC1)c(=O)n2C [AZD7648] (first compound max 1 µM, 7x7, partner max 10 µM) | 0.979 | 0.494 | 0.221 | 0.198 | 0.851 | 0.108 | 0.227 | 0.216 | 0.162 | 0.405 | 0.735 | 0.809 | 0.248 | 0.178 | 0.193 | -0.0039 | -0.0842 | -0.0277 | -0.0213 | -0.0371
5 | Cc1cc2ncnn2cc1Nc1ncc2c(n1)n(C1CCOCC1)c(=O)n2C [AZD7648] + COc1cc([C@@H]2c3cc4c(cc3[C@@H](O[C@@H]3O[C@@H]5CO[C@@H](C)O[C@H]5[C@H](O)[C@H]3O)[C@H]3COC(=O)[C@H]23)OCO4)cc(OC)c1O [Etoposide] (first compound max 10 µM, 7x7, partner max 10 µM) | 0.522 | 0.897 | 0.976 | 0.269 | 0.714 | 0.618 | 0.641 | 0.942 | 0.772 | 0.253 | 0.615 | 0.755 | 0.642 | 0.736 | 0.86 | 0.141 | -0.0566 | 0.0606 | 0.0306 | 0.0808
6 | Cc1cc2ncnn2cc1Nc1ncc2c(n1)n(C1CCOCC1)c(=O)n2C [AZD7648] + C[C@@H]1COCCN1C2=NC(=NC(=C2)C3(CC3)[S@](=N)(=O)C)C4=C5C=CNC5=NC=C4 [AZD6738] (first compound max 10 µM, 7x7, partner max 10 µM) | 0.739 | 0.656 | 0.927 | 0.545 | 0.61 | 0.647 | 0.656 | 0.862 | 0.888 | 0.636 | 0.541 | 0.528 | 0.624 | 0.441 | 0.499 | 0.0578 | 0.0552 | 0.0087 | 0.0207 | 0.0707
7 | CN(CCO)CC[C@H](CSc1ccccc1)Nc1ccc(S(=O)(=O)NC(=O)c2ccc(N3CCC([C@@H](O)c4ccccc4-c4ccc(Cl)cc4)CC3)cc2)cc1S(=O)(=O)C(F)(F)F [AZD4320] + Nc1ccn([C@@H]2O[C@H](CO)[C@@H](O)C2(F)F)c(=O)n1 [Gemcitabine] (first compound max 1 µM, 7x7, partner max 0.3 µM) | 0.934 | 0.492 | 0.812 | 0.634 | 0.98 | 0.363 | 0.852 | 0.953 | 0.969 | 0.311 | 0.702 | 0.955 | 0.72 | 0.199 | 0.927 | 0.0876 | -0.0777 | -0.0556 | -0.0365 | -0.017
8 | C[C@@H](c1ccc2nccn2c1)n1nnc2ncc(-c3cnn(C)c3)nc21 [Savolitinib] + Cc1c2c(nn1C)CSCc1cc(n(C)n1)CSc1cc(c3ccccc3c1)OCCCc1c(C(=O)O)n(C)c3c-2c(Cl)ccc13 [AZD5991] (first compound max 1 µM, 7x7, partner max 1 µM) | 0.214 | 0.179 | 0.936 | 0.203 | 0.196 | 0.366 | 0.276 | 1 | 0.174 | 0.233 | 0.223 | 0.275 | 0.545 | 0.225 | 0.735 | -0.01 | -0.0404 | -0.011 | -0.0229 | -0.0541
9 | N#Cc1cnc(Nc2cc(NC[C@H]3CNCCO3)c(C(F)(F)F)cn2)cn1 [SRA737] + O=c1[nH]cc(F)c(=O)[nH]1 [5-Fluorouracil] (first compound max 10 µM, 7x7, partner max 20 µM) | 0.693 | 0.778 | 0.996 | 0.428 | 0.585 | 0.35 | 0.542 | 0.882 | 0.781 | 0.405 | 0.355 | 0.566 | 0.098 | 0.711 | 0.0967 | 0.0135 | 0.0415 | -0.0494 | 0.0358 | -0.026
10 | Cc1cc2ncnn2cc1Nc1ncc2c(n1)n(C1CCOCC1)c(=O)n2C [AZD7648] + CCN(CCO)CCCOc1ccc2c(Nc3cc(CC(=O)Nc4cccc(F)c4)[nH]n3)ncnc2c1 [AZD2811] (first compound max 10 µM, 7x7, partner max 1 µM) | 0.351 | 0.37 | 0.326 | 0.287 | 0.45 | 0.473 | 0.482 | 0.469 | 0.329 | 0.422 | 0.536 | 0.303 | 0.312 | 0.361 | 0.506 | 0.0541 | -0.0197 | 0.0293 | 0.013 | 0.0406
11 | CN(CCO)CC[C@H](CSc1ccccc1)Nc1ccc(S(=O)(=O)NC(=O)c2ccc(N3CCC([C@@H](O)c4ccccc4-c4ccc(Cl)cc4)CC3)cc2)cc1S(=O)(=O)C(F)(F)F [AZD4320] + C1CN(CCC1(C(=O)N[C@@H](CCO)C2=CC=C(C=C2)Cl)N)C3=NC=NC4=C3C=CN4 [Capivasertib] (first compound max 1 µM, 7x7, partner max 3 µM) | 0.924 | 0.612 | 0.0749 | 0.484 | 0.869 | 0.0907 | 0.266 | 0.317 | 0.121 | 0.204 | 0.87 | 0.817 | 0.341 | 0.294 | 0.138 | -0.0055 | -0.0492 | -0.0357 | -0.0094 | -0.0326
12 | CN(CCO)CC[C@H](CSc1ccccc1)Nc1ccc(S(=O)(=O)NC(=O)c2ccc(N3CCC([C@@H](O)c4ccccc4-c4ccc(Cl)cc4)CC3)cc2)cc1S(=O)(=O)C(F)(F)F [AZD4320] + CC(=O)O[C@H]1C(=O)[C@@]2(C)[C@H]([C@H](OC(=O)c3ccccc3)[C@]3(O)C[C@H](OC(=O)[C@H](O)[C@@H](NC(=O)c4ccccc4)c4ccccc4)C(C)=C1C3(C)C)[C@]1(OC(C)=O)CO[C@@H]1C[C@@H]2O [Paclitaxel] (first compound max 1 µM, 7x7, partner max 3 µM) | 1 | 0.951 | 0.837 | 0.82 | 0.968 | 0.95 | 1 | 1 | 0.71 | 0.436 | 1 | 0.989 | 0.808 | 0.853 | 1 | 0.037 | -0.0002 | 0.0863 | 0.0578 | 
